Test results published in PubChem BioAssay (NCI).
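The compound was tested at five concentrations on cells cultured in 96-well plates, with a 48-hour exposure period. GI50 = concentration required for 50% inhibition of growth. TGI denotes the concentration required for complete inhibition of growth.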

What was measured:
Experiment in all cases: inhibition of tumour cell growth, NCI panel, 48 h
[1] = tested on: HL-60(TB) leukemia
[2] = tested on: TK-10 renal
[3] = tested on: SNB-19 CNS
[4] = tested on: MOLT-4 leukemia
[5] = tested on: HOP-62 NSCLC
[6] = tested on: RXF 393 renal
[7] = tested on: NCI-H23 lung
[8] = tested on: UACC-257 melanoma
[9] = tested on: MCF7 breast
[10] = tested on: UACC-62 melanoma

| SMILES | GI50 [1] [µM] | TGI [1] [µM] | GI50 [2] [µM] | TGI [2] [µM] | GI50 [3] [µM] | TGI [3] [µM] | GI50 [4] [µM] | TGI [4] [µM] | GI50 [5] [µM] | TGI [5] [µM] | GI50 [6] [µM] | TGI [6] [µM] | GI50 [7] [µM] | TGI [7] [µM] | GI50 [8] [µM] | TGI [8] [µM] | GI50 [9] [µM] | TGI [9] [µM] | GI50 [10] [µM] | TGI [10] [µM] |
| --- | --- | --- | --- | --- | --- | --- | --- | --- | --- | --- | --- | --- | --- | --- | --- | --- | --- | --- | --- | --- |
| COC(=O)Nc1nc2ccc(Oc3ccc(NC(=O)Nc4cccc(Cl)c4)cc3)cc2[nH]1 | 0.859 | 2.92 | 4 | 11.6 | 2.61 | > 25 | 2.35 | 18.8 | 0.9 | 4.73 | 0.445 | 2.34 | 2.24 | 12.9 | 1.7 | 19.5 | 0.307 | 4.75 | 0.712 | 4.78 |
| [N-]=[N+]=CC(=O)OCC(N)C(=O)O (configuration not stated) | 0.918 | > 100 | 0.573 | > 100 | 2.28 | > 100 | 0.638 | > 100 | 2.26 | > 100 | 4.46 | > 100 | 1.85 | > 100 | 3.61 | > 100 | 0.456 | > 100 | 2.06 | > 100 |
| CC/C(=C(\CC)c1ccc(OCCN(CC)CC)cc1)c1ccc(OCCN(CC)CC)cc1 | 3.8 | 9.84 | 3.34 | 12.1 | 3.26 | 10.6 | 3.62 | 18.2 | 1.73 | 4.76 | 1.63 | 3.75 | 5.77 | 21.8 | 1.23 | 2.82 | 2.81 | 7.99 | 1.92 | 4.29 |
| O=C(O)c1cccc(CC(Br)C(=O)O)c1 (configuration not stated) | – | > 100 | – | > 100 | – | > 100 | – | > 100 | – | > 100 | – | > 100 | – | > 100 | – | > 100 | – | > 100 | – | > 100 |
| Nc1nccc(Nc2ccc(S(N)(=O)=O)cc2)n1 | – | > 100 | – | > 100 | – | > 100 | – | > 100 | – | > 100 | – | > 100 | – | > 100 | – | > 100 | – | > 100 | – | > 100 |
| Cc1cccc(N=C2c3cc([N+](=O)[O-])ccc3-c3c2cc([N+](=O)[O-])cc3[N+](=O)[O-])c1 | 3.35 | 13.1 | 12.9 | > 100 | 14.3 | 31.7 | 3.64 | > 100 | 4.28 | 19.9 | 2.28 | 4.95 | 5.33 | 27.6 | 6.81 | 34.5 | 6.27 | 28.2 | 5.03 | 20.2 |
| CN(CCC(=O)O)S(=O)(=O)c1ccccc1 | – | > 100 | – | > 100 | – | > 100 | – | > 100 | – | > 100 | – | > 100 | – | > 100 | – | > 100 | – | > 100 | – | > 100 |
| Cc1ccc(NC(=O)c2ccnc(N3CCCC3)c2)cc1-c1ccc(C(=O)NCC2CC2)cc1 | > 25 | > 25 | > 25 | > 25 | > 25 | > 25 | > 25 | > 25 | > 25 | > 25 | – | > 25 | > 25 | > 25 | > 25 | > 25 | > 25 | > 25 | > 25 | > 25 |
| CC(=O)OCC1OC(S[As](C)C)C(OC(C)=O)C1OC(C)=O (configuration not stated) | 0.0813 | 0.648 | 0.231 | 0.843 | 9.06 | 29.5 | 0.177 | 0.765 | 3.35 | 15.2 | 0.455 | 2.31 | 0.551 | 3.63 | 1.57 | 7.06 | 0.304 | 1.11 | 0.357 | 1.52 |
| CC(C)(O)[C@H]1[C@@H]2OC(=O)[C@H]1[C@]1(O)C[C@H]3OC34C(=O)O[C@H]2[C@@]41C (some centres not stated) (tested in a mixture with another compound) | – | > 100 | – | > 100 | – | > 100 | – | > 100 | – | > 100 | – | > 100 | – | > 100 | – | > 100 | – | > 100 | – | > 100 |
| CC[C@H](C)C(=O)O[C@H]1CCC=C2C=C[C@H](C)C(CCC3C[C@@H](O)CC(=O)O3)[C@H]21 (some centres not stated) | 11.7 | 52.9 | 18.5 | > 100 | 18.4 | > 100 | – | > 100 | 18.1 | > 100 | 3.65 | 24.4 | 3.5 | > 100 | > 100 | > 100 | 39.5 | > 100 | 4.75 | 61.9 |
| COc1cccc2c1c1nc3cc(C)c(C)cc3nc1n2CCN(C)C | 2.09 | 6.57 | 2.95 | 11.5 | 2.04 | 14 | 0.498 | – | 1.72 | 11 | 1.59 | 3.54 | 1.66 | 5.57 | 1.9 | 4.74 | 2.13 | 10.9 | 1.7 | 3.37 |
| CC1(C)C2CCC13C(=O)C1OC3(C2)C2C(=O)c3c(O)ccc(O)c3C(=O)C12 (configuration not stated) | 10.6 | > 50.2 | 26.1 | 69 | 61.5 | > 100 | 5.93 | > 46.6 | 54.5 | > 100 | 31.1 | > 56.9 | 16.4 | 37.5 | 32.7 | > 66.7 | 35 | > 100 | 97.1 | > 100 |
| O=C1/C(=C/C(Cl)=C/c2ccccc2)SC(=S)N1CCc1ccc(O)cc1 | 1.5 | > 100 | 2.39 | 5.49 | 1.51 | 2.95 | 2.2 | > 100 | 3.15 | 12.2 | 1.58 | 3.2 | 2.42 | 7.85 | 1.39 | 3.61 | 1.85 | 16.9 | 1.33 | 3.04 |
